# Measured values: article PMC3507690, “A Single Glycine-Alanine Exchange Directs Ligand Specificity of the Elephant Progestin Receptor” (PLoS ONE, 2012)
# Target: T1, hPR LBD (initial construct) (Homo sapiens, UniProt P06401)
# T1 construct: gene PGR; pET3d, E. coli BL21 lysate; cloned from HOSE cell cDNA
# T1 sequence (P06401 634-933): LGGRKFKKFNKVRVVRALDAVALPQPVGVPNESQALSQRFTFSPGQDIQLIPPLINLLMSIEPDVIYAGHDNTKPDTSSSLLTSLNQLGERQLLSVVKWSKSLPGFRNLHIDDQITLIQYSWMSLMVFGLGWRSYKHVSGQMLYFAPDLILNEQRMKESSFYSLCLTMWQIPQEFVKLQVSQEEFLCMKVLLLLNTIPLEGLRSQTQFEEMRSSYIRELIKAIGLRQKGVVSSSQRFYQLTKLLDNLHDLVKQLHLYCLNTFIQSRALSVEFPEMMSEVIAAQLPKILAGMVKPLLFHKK
# Test: competitive radioligand binding, charcoal separation, bacterial lysate
# Details: 1 nM [3H]-progesterone, 16 h, 4 °C; relative binding affinity compared to progesterone
compound,measurement,value
"CC(=O)[C@H]1CC[C@H]2[C@@H]3CC[C@H]4CC(=O)CC[C@]4(C)[C@H]3CC[C@]12C [DHP, 5α-dihydroprogesterone]",RBA,relative binding affinity (RBA) of DHP compared to progesterone measured by competitive binding assays
